In patent publication US12042564B2, “Therapeutic solid dosage forms” (CYBIN UK LTD, priority 2020, dated 2024):
Values joined by “and” are separate entries in the source; they are usually repeats but may differ in a detail not shown here. Equal values may be shown once.

Key:
[1] = cited from earlier work
[2] = Plasma pharmacokinetics of test compound after oral dosing in rats; settings: rat plasma; for Determined Concentration of test compound in plasma / Determined Concentration of test compound in plasma, Mean: oral dosing; for Determined Concentration of test compound in plasma: individual animal; for Determined Concentration of test compound in plasma, Mean: mean of 3 animals
[3] = Solubility of DMT fumarate at different pH values in Britton-Robinson buffer; settings: before pH adjustment
[4] = test system: human liver mitochondrial fraction; experiment: Intrinsic clearance and half-life in human liver mitochondrial fraction; assay type: in vitro ADME; settings: 0.5 mg/mL human liver mitochondrial fraction, 1 μM test compounds
Source text: Use of Liver Mitochondrial Fraction to Model Human Metabolism of Deuterated DMT

[5] = Plasma IAA metabolite levels after oral dosing in rats; settings: for Estimated IAA Concentration / Estimated IAA Concentration, Mean: rat plasma, PO Dose (25 mg/kg); for Estimated IAA Concentration: individual animal; for Estimated IAA Concentration, Mean: mean of animals
[6] = Initial solubility test of DMT fumarate in aqueous vehicles; assay type: physicochemical
Experimental: Solubility of DMT fumarate was assessed at a concentration of 10 mg/ml in a small selection of aqueous vehicles (water, saline, 20 mM phosphate buffer and a combination of buffer and saline).
Phosphate buffer (100 ml) was prepared using 219.53 mg of the dibasic form [HPO4][Na]2 with 183.7 mg of the monobasic form [H2PO4]Na, both dihydrate salts. The solution was adjusted to pH 7.0 with addition of NaOH (1 M) and then made to volume. 10 ml of a 10 mg/ml formulation was prepared.
To prepare this, sodium chloride was first dissolved in water to produce the saline solution (100 ml, 0.45% w/v). The phosphate salts, in the quantities described above, were then dissolved in the saline solution and the pH was adjusted using NaOH (1 M).
The pH of these solutions was in the range 3-4.

In the case of `CN(C)CCc1c[nH]c2ccccc12.O=C(O)/C=C/C(=O)O` [SPL026, N,N-dimethyltryptamine (DMT) fumarate salt], the “predicted half-life in humans” value ([1]; humans) is listed as 5 min, the duration of action ([1]; psychedelic effect) is listed as “under 20 minutes” and the “mean Cmax” value ([2]; 25 mg/kg single oral gavage) is listed as 27.9 ng/mL. For the same molecule, the “Determined Concentration of test compound in plasma” value ([2]; 1 min, fumarate salt) was “BLQ (Below the lower limit of quantification 0.310 ng/mL) (2×) and 0.391 ng/mL”, the “Determined Concentration of test compound in plasma, Mean” value (“Determined Concentration … Mean” below) ([2]; 1 min) was less than 0.3 ng/mL and the “Determined Concentration of test compound in plasma” value ([2]; 5 min, fumarate salt) was “BLQ (Below the lower limit of quantification 0.310 ng/mL) (2×) and 0.590 ng/mL”. The “Determined Concentration … Mean” value ([2]; 5 min) was less than 0.4 ng/mL, the “Determined Concentration of test compound in plasma” value ([2]; 10 min, fumarate salt) was “BLQ (Below the lower limit of quantification 0.310 ng/mL) and 4.06 ng/mL and 20.7 ng/mL” and the “Determined Concentration … Mean” value ([2]; 10 min) was less than 8.4 ng/mL. The “Determined Concentration of test compound in plasma” value ([2]; 15 min, fumarate salt) was 0.763 ng/mL and 19.9 ng/mL and 25.7 ng/mL, the “Determined Concentration … Mean” value ([2]; 15 min) was 15.5 ng/mL and the “Determined Concentration of test compound in plasma” value ([2]; 30 min, fumarate salt) was 7.77 ng/mL and 25.2 ng/mL and 29.5 ng/mL. The “Determined Concentration … Mean” value ([2]; 30 min) was 20.8 ng/mL, the “Determined Concentration of test compound in plasma” value ([2]; 45 min, fumarate salt) was 18.0 ng/mL and 18.5 ng/mL and 28.6 ng/mL and the “Determined Concentration … Mean” value ([2]; 45 min) was 21.7 ng/mL. The “Determined Concentration of test compound in plasma” value ([2]; 60 min, fumarate salt) was 16.9 ng/mL and 31.6 ng/mL and 34.1 ng/mL, the “Determined Concentration … Mean” value ([2]; 60 min) was 27.5 ng/mL and the “Determined Concentration of test compound in plasma” value ([2]; 120 min, fumarate salt) was 13.7 ng/mL and 11.7 ng/mL and 16.9 ng/mL. For the same molecule, the “Determined Concentration … Mean” value ([2]; 120 min) was 14.1 ng/mL, the “Determined Concentration of test compound in plasma” value ([2]; 180 min, fumarate salt) was 5.83 ng/mL and 2.57 ng/mL and 2.45 ng/mL and the “Determined Concentration … Mean” value ([2]; 180 min) was 3.6 ng/mL. For the same molecule, the “Determined Concentration of test compound in plasma” value ([2]; Predose) was “BLQ (Below the lower limit of quantification 0.310 ng/mL)”, the “Determined Concentration … Mean” value ([2]; Predose) was “BLQ (Below the lower limit of quantification 0.310 ng/mL)” and the “dissolution at 20 mg/ml in Britton-Robinson buffer solution” value [3] was “very soluble”. The “Half-life (min) R1” value ([4]; 5 μM Serotonin and Benzylamine controls, replicate 1) was 8.8 min, the “Half-life (min) Mean” value ([4]; 5 μM controls, mean of replicates) was 8.3 min and the “Half-life (min) R3” value ([4]; 5 μM controls, replicate 3) was 7.6 min. The “Half-life (min) R4” value ([4]; 5 μM controls, replicate 4) was 8.3 min, the “Mean IAA Cmax” value ([5]; rat plasma IAA (semi quantified) after 25 mg/kg PO of the compound) was 9.204 ng/mL and the “Mean IAA tmax” value ([5]; rat plasma IAA after 25 mg/kg PO of the compound) was 30 min. For the same molecule, the “Estimated IAA Concentration” value ([5]; 1 min) was “BLQ”, the “Estimated IAA Concentration, Mean” value ([5]; 1 min) was “BLQ” and the “Estimated IAA Concentration” value ([5]; 5 min, fumarate salt, 25 mg/kg) was 0.549 ng/mL and 1.33 ng/mL and 1.64 ng/mL. For the same molecule, the “Estimated IAA Concentration, Mean” value ([5]; 5 min) was 1.171 ng/mL, the “Estimated IAA Concentration” value ([5]; 10 min, fumarate salt, 25 mg/kg) was 1.08 ng/mL and 2.58 ng/mL and 4.39 ng/mL and the “Estimated IAA Concentration, Mean” value ([5]; 10 min) was 2.683 ng/mL. The “Estimated IAA Concentration” value ([5]; 15 min, fumarate salt, 25 mg/kg) was 1.82 ng/mL and 5.55 ng/mL and 6.09 ng/mL, the “Estimated IAA Concentration, Mean” value ([5]; 15 min) was 4.487 ng/mL and the “Estimated IAA Concentration” value ([5]; 30 min, fumarate salt, 25 mg/kg) was 7.08 ng/mL and 11.8 ng/mL and 8.88 ng/mL. For the same molecule, the “Estimated IAA Concentration, Mean” value ([5]; 30 min) was 9.245 ng/mL, the “Estimated IAA Concentration” value ([5]; 45 min, fumarate salt, 25 mg/kg) was 5.10 ng/mL and 6.44 ng/mL and 9.98 ng/mL and the “Estimated IAA Concentration, Mean” value ([5]; 45 min) was 7.174 ng/mL. For the same molecule, the “Estimated IAA Concentration” value ([5]; 60 min, fumarate salt, 25 mg/kg) was 6.18 ng/mL and 9.74 ng/mL and 11.7 ng/mL, the “Estimated IAA Concentration, Mean” value ([5]; 60 min) was 9.204 ng/mL and the “Estimated IAA Concentration” value ([5]; 120 min, fumarate salt, 25 mg/kg) was 7.40 ng/mL and 7.70 ng/mL and 8.67 ng/mL. The “Estimated IAA Concentration, Mean” value ([5]; 120 min) was 7.924 ng/mL, the “Estimated IAA Concentration” value ([5]; 180 min, fumarate salt, 25 mg/kg) was 4.34 ng/mL and 2.53 ng/mL and 3.08 ng/mL and the “Estimated IAA Concentration, Mean” value ([5]; 180 min) was 3.316 ng/mL. The “Estimated IAA Concentration” value ([5]; Predose) was “BLQ”, the “Estimated IAA Concentration, Mean” value ([5]; Predose) was “BLQ” and the “pH of these solutions” value ([6]; 10 mg/ml in aqueous vehicles) was 3-4. The “Solubility at a concentration of 10 mg/ml in aqueous vehicles” value ([6]; water, saline, 20 mM phosphate buffer, buffer and saline) was “readily soluble”.
